Counter-ions that a name gives are not always drawn. Like-named read-outs stand apart in the source and are kept apart here.
Key:
Type in all cases: cell-based
Bacillus anthracis = experiment: microbe, parasite or virus in culture
Yersinia pestis = experiment: microbe, parasite or virus in culture
Burkholderia cepacia = test system: Burkholderia cepacia; set-up: unit not given beside the values; details: unit not given
Francisella tularensis = experiment: microbe, parasite or virus in culture
Staphylococcus aureus = test system: Staphylococcus aureus
Streptococcus pyogenes = test system: Streptococcus pyogenes
Streptococcus pneumonia = details: Streptococcus pneumoniae
[1] = test system: Mycobacterium tuberculosis H37Rv; experiment: Mycobacterium Tuberculosis H37Rv Inhibition Assay; details: H37Rv strain, Middlebrook 7H9+ADC, resazurin fluorescence; for MIC: H37RV
Streptococcus agalactiae = test system: Streptococcus agalactiae
Bacteroides fragilis = test system: Bacteroides fragilis
Serratia marcescens = details: Table 1 column N = Serratia marcescens; unit inferred
Bacteroides ovatus = test system: Bacteroides ovatus
[2] = test system: Burkholderia pseudomallei; details: Table 3 column E4 = Burkholderia pseudomallei
citrobacter spp = details: Table 1 column L = citrobacter spp; unit inferred
[3] = test system: Bacteroides thetaiotamicron
Providencia rettgeri = details: Table 1 column O = Providencia rettgeri; unit inferred
Burkholderia mallei = details: Table 3 column D4 = Burkholderia mallei
Bacteroides caccae = test system: Bacteroides caccae
E. faecium = details: G1 = E. faecium
Enterococcus faecalis = test system: Enterococcus faecalis
Moraxella catarrhalis = details: unit inferred
Legionella pneumophila = details: Table 1 column G = Legionella pneumophila; unit inferred

`COc1cnc2ccc(F)c(CN[C@H]3CC[C@H](NCc4cnc5c(n4)NC(=O)CO5)C[C@H]3O)c2n1.Cl` [Compound W, 6-({[(1S,3R,4S)-4-{[(6-fluoro-3-methoxyquinoxalin-5-yl)methyl]amino}-3-hydroxycyclohexyl]amino}methyl)-2H,3H,4H-pyrazino[2,3-b][1,4]oxazin-3-one] was tested, and the MIC90 (Bacillus anthracis; Bacillus anthracis) was ≤ 0.5 µg/mL, the MIC90 (Yersinia pestis; Yersinia pestis) was ≤ 0.125 µg/mL and the MIC90 (Burkholderia cepacia) was ≤16. For the same compound, the MIC90 (Francisella tularensis; Francisella tularensis) was ≤ 0.125 µg/mL, the MIC90 (Staphylococcus aureus) was ≤ 0.125 µg/mL and the MIC90 (Streptococcus pyogenes) was ≤ 0.125 µg/mL. For the same compound, the MIC90 (Streptococcus pneumonia) was ≤ 0.5 µg/mL.

For `COc1cnc2ccc(F)c(CN[C@H]3CC[C@H](NCc4cnc5c(n4)NC(=O)CO5)C[C@H]3O)c2n1.Cl` [Compound W, HCl salt, 6-(((1S,3R,4S)-4-((7-Fluoro-2-methoxyquinoxalin-8-yl)methylamino)-3-hydroxycyclohexylamino)methyl)-2H-pyrazino[2,3-b][1,4]oxazin-3(4H)-one Hydrochloride], the MIC [1] was ≤ 0.02 µg/mL.

With `COc1ccc2ccc(=O)n(CCN3C[C@H](CNCc4cnc5c(n4)NC(=O)CS5)[C@H](O)C3)c2n1` [Compound Y, HCl salt, 1-{2-[(3S,4S)-3-hydroxy-4-{[({3-oxo-2H,3H,4H-pyrazino[2,3-b][1,4]thiazin-6-yl}methyl)amino]methyl}pyrrolidin-1-yl]ethyl}-7-methoxy-1,2-dihydro-1,8-naphthyridin-2-one] the MIC [1] was ≤ 0.02 µg/mL.

For `Cn1cc(C(=O)O)c(=O)c2c(CC[C@H]3CC[C@H](NCc4cnc5c(n4)NC(=O)CS5)CC3)c(F)cc(F)c21` [Compound Z, TFA salt, 6,8-difluoro-1-methyl-4-oxo-5-(2-((1r,4s)-4-(((3-oxo-3,4-dihydro-2H-pyrazino [2,3-b][1,4]thiazin-6-yl)methyl)amino)cyclohexyl)ethyl)-1,4-dihydroquinoline-3-carboxylic acid], the MIC [1] was ≤ 0.1 µg/mL.

In the case of `COc1cnc2ccc(F)c(CNC3CCC(NCc4cnc5c(n4)NC(=O)CO5)CC3)c2n1.Cl` [Formula (V) HCl salt, 6-((((1R,4R)-4-(((6-fluoro-3-methoxyquinoxalin-5-yl)methyl)amino)cyclohexyl)amino)methyl)-2H-pyrazino[2,3-b][1,4]oxazin-3(4H)-one, Hydrochloride], the MIC90 (Streptococcus agalactiae) is reported as ≤2 µg/mL, the MIC90 (Bacillus anthracis; Table 3 column B4 = Bacillus anthracis) is reported as ≤0.25 µg/mL and the MIC (Bacteroides fragilis) is reported as ≤0.5 µg/mL. For the same compound, the MIC90 (Serratia marcescens) was ≤ 4 µg/mL, the “H37Rv MIC” value [1] was ≤0.3 µg/mL and the MIC (Bacteroides ovatus) was ≤2 µg/mL. The MIC90 [2] was ≤4 µg/mL, the MIC90 (Yersinia pestis; Table 3 column A4 = Yersinia pestis) was ≤0.12 µg/mL and the MIC90 (Burkholderia cepacia) was ≤8. For the same compound, the MIC90 (Francisella tularensis; Table 3 column C4 = Francisella tularensis) was ≤0.5 µg/mL, the MIC90 (citrobacter spp) was ≤ 0.25 µg/mL and the MIC [3] was ≤1 µg/mL. The MIC90 (Providencia rettgeri) was ≤ 0.5 µg/mL, the MIC90 (Burkholderia mallei) was ≤4 µg/mL and the MIC (Bacteroides caccae) was ≤4 µg/mL.

For `COc1cnc2ccc(F)c(CN[C@H]3CC[C@H](NCc4cnc5c(n4)NC(=O)CO5)CC3)c2n1` [Formula (V) free base, 6-((((1R,4R)-4-(((6-fluoro-3-methoxyquinoxalin-5-yl)methyl)amino)cyclohexyl)amino)methyl)-2H-pyrazino[2,3-b][1,4]oxazin-3(4H)-one], the MIC [1] was ≤ 0.02 µg/mL, the MIC90 (E. faecium; Enterococcus faecium, read-out: MIC90) was ≤ 0.5 µg/mL and the MIC90 (Enterococcus faecalis; read-out: MIC90) was ≤ 0.5 µg/mL. The MIC90 (Moraxella catarrhalis) was < 0.016 µg/mL.

`COc1cnc2ccc(F)c(CN[C@@H]3CC[C@@H](NCc4cnc5c(n4)NC(=O)CO5)C[C@@H]3O)c2n1.Cl` [Formula (VI) HCl salt, 6-((((1R,3S,4R)-4-(((6-fluoro-3-methoxyquinoxalin-5-yl)methyl)amino)-3-hydroxycyclohexyl)amino)methyl)-2H-pyrazino[2,3-b][1,4]oxazin-3(4H)-one Hydrochloride] was tested, and the MIC90 (Bacillus anthracis; Bacillus anthracis) was ≤ 0.25 µg/mL, the MIC [1] was ≤ 0.02 µg/mL and the MIC90 (Yersinia pestis; Yersinia pestis) was ≤ 0.125 µg/mL. For the same compound, the MIC90 (Burkholderia cepacia) was ≤8, the MIC90 (Francisella tularensis; Francisella tularensis) was ≤ 0.063 µg/mL and the MIC90 (Staphylococcus aureus) was ≤ 0.125 µg/mL. For the same compound, the MIC90 (Streptococcus pyogenes) was ≤ 0.063 µg/mL and the MIC90 (Streptococcus pneumonia) was ≤ 0.25 µg/mL.

In the case of `COc1ccc2ncc(=O)n(CCN3CC[C@@H](CNCc4ncc5c(n4)NC(=O)CO5)C3)c2n1` [Formula (VII) HCl salt, 2-({[((3S)-1-{2-[6-(methyloxy)-3-oxopyrido[2,3-b]pyrazin-4(3H)-yl]ethyl}-3-pyrrolidinyl)methyl]amino}methyl)-1H-pyrimido[5,4-b][1,4]oxazin-7(6H)-one], the MIC90 (Bacillus anthracis; Bacillus anthracis) is reported as ≤ 0.12 µg/mL, the MIC90 (Serratia marcescens) is reported as ≤ 2 µg/mL and the MIC [1] is reported as ≤ 0.3 µg/mL. The MIC90 (Yersinia pestis; Yersinia pestis) was ≤ 0.12 µg/mL, the MIC90 (Burkholderia cepacia) was ≤16 and the MIC90 (E. faecium) was ≤0.5 µg/mL. For the same compound, the MIC90 (Legionella pneumophila) was ≤ 0.06 µg/mL, the MIC90 (Francisella tularensis; Francisella tularensis) was ≤ 0.03 µg/mL and the MIC90 (citrobacter spp) was ≤ 0.5 µg/mL. For the same compound, the MIC90 (Providencia rettgeri) was ≤ 1 µg/mL, the MIC90 (Enterococcus faecalis; read-out: MIC90) was ≤ 0.5 µg/mL and the MIC90 (Moraxella catarrhalis) was < 0.016 µg/mL.

For `COc1ccc2ncc(=O)n(CCN3CC[C@@H](CNCc4ncc5c(n4)NC(=O)CO5)C3)c2n1` [Formula (VII) free base, 2-({[((3S)-1-{2-[6-(methyloxy)-3-oxopyrido[2,3-b]pyrazin-4(3H)-yl]ethyl}-3-pyrrolidinyl)methyl]amino}methyl)-1H-pyrimido[5,4-b][1,4]oxazin-7(6H)-one], the “H37Rv MIC” value [1] was ≤0.16 µg/mL, the MIC90 (Burkholderia cepacia) was ≤8 and the MIC90 (E. faecium) was ≤0.125 µg/mL. The MIC90 (Enterococcus faecalis) was ≤0.25 µg/mL and the MIC90 (Moraxella catarrhalis) was < 0.016 µg/mL.

From patent US10683307B2, “Compounds for use in antibacterial applications” (GLAXOSMITHKLINE INTELLECTUAL PROPERTY DEVELOPMENT LIMITED, priority 2015, dated 2020)
